Assays:
isolated urethra of rat = assay: Contraction-measuring system using an isolated urethra of rat; details: Magnus tube, urethra strips, control high concentration KCl
Experimental: After sacrificing female or male CD (SD) IGS rats (Charles River Japan Inc., 8-9 week-old in use) by blowing heads and exsanguinating from carotid artery and jugular vein, urethra under pubis was isolated carefully and soaked in Krebs-Henseleit solution (112 mM NaCl, 5.9 mM KCl, 2.0 mM CaCl2, 1.2 mM MgCl2, 1.2 mM NaH2PO4, 25.0 mM NaHCO3, 11.5 mM Glucose) immediately. Urethra part was cut from isolated sample, and was dissected flatly and subsequently was cut parallel to circular muscle. Thus, 2-3 strips of sample that are 3-4 mm long by 2-3 mm wide were made from one animal.
The made samples were suspended in the Magnus tube (volume: 10 mL) filled by Krebs-Henseleit solution (vented by 37±1° C., mixed gas [95% O2+5% CO2]). The samples were added about 0.5 g tension and stabilized for 60 min, and subsequently the contractile activity was recorded on recorder (lincarcoder WR3320: GRAPHTEC CORP.) via a pressure amplifier (AP-621G: Nihon Kohden Ltd) from Force displacement transducer (FD pick-up TB-611T; Nihon Kohden Ltd).
The contractile reaction of control was given by stimulation of high concentration KCl solution (solution replaced all NaCl with KCl).

Male CD (SD) IGS rats = assay: Increasing urethral pressure measuring system under anesthesia of rat with urethane; format: in vivo; details: i.v., urethane-anesthetized rat
Description: Male CD (SD) IGS rats (Charles River Japan Inc., 8-9 week-old in use) were anesthetized by subcutaneous administration of urethane (1.2 g/kg). After incision of cervical median, jugular catheter for administration of drug and arterial catheter for measurement of blood pressure were inserted. After incising of hypogastrium median, urethra was tied off in the vicinity of pubic bone. Urethra catheter was inserted into urethra by incision of dome of urinary bladder and fixed by ligation at the bladder neck. Urethra catheter was connected to the pressure tranducer and urethral pressure was measured. Subsequently, urethral pressure was adjusted about 20 mmHg and left until stabilizing (for about 20 minutes).

SMILES | contracting effect on the isolated urethra of rat (isolated urethra of rat) | increase of urethral pressure (Male CD (SD) IGS rats; 0.3 mg/kg) [mmHg] | increase of urethral pressure (Male CD (SD) IGS rats; 1.0 mg/kg) [mmHg]
CCCCC[C@@H]1O[C@@H]1C[C@H]1O[C@H]1CCCCCCCC(=O)OC[C@H](O)COP(=O)(O)O [Example 1-1] | contracting effect | 5.4 | 8.5
CCCCC/C=C\C/C=C\CCCCCCCC(=O)OC[C@@H](O)COP(=O)([O-])[O-].[Na+].[Na+] [1-linoleoyl(18:2)-LPA, D(+)-sn-1-o-linoleoyl-glyceryl-3-phosphate. sodium salt, reference compound] | – | 0.6 | 0.8
